Results taken from PubChem BioAssay (NCI).
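All cell lines were grown in 96-well plates and treated with compound for 48 hours. At the TGI there is no net growth.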

Experiments:
Assay in all cases: growth of human tumour cells (NCI), 48 h
MDA-N = system: MDA-N
TK-10 renal = system: TK-10 renal
HOP-62 NSCLC = system: HOP-62 NSCLC
CCRF-CEM leukemia = system: CCRF-CEM leukemia
EKVX NSCLC = system: EKVX NSCLC
SK-MEL-28 melanoma = system: SK-MEL-28 melanoma
RPMI-8226 leukemia = system: RPMI-8226 leukemia
A549 NSCLC = system: A549 NSCLC
MDA-MB-435 = system: MDA-MB-435
HCC-2998 colon = system: HCC-2998 colon
NCI-H226 lung = system: NCI-H226 lung
UACC-62 melanoma = system: UACC-62 melanoma
ACHN renal = system: ACHN renal
DU-145 prostate = system: DU-145 prostate
HL-60(TB) leukemia = system: HL-60(TB) leukemia
UACC-257 melanoma = system: UACC-257 melanoma
LOX IMVI melanoma = system: LOX IMVI melanoma
NCI-H460 lung = system: NCI-H460 lung
RXF 393 renal = system: RXF 393 renal
BT-549 breast = system: BT-549 breast
SNB-75 CNS = system: SNB-75 CNS
MCF7 breast = system: MCF7 breast
SR leukemia = system: SR leukemia
SK-OV-3 ovarian = system: SK-OV-3 ovarian
MALME-3M melanoma = system: MALME-3M melanoma
SF-539 CNS = system: SF-539 CNS
SF-295 CNS = system: SF-295 CNS
NCI/ADR-RES ovarian = system: NCI/ADR-RES ovarian
PC-3 prostate = system: PC-3 prostate
COLO 205 colon = system: COLO 205 colon
SF-268 CNS = system: SF-268 CNS
IGROV1 ovarian = system: IGROV1 ovarian
MDA-MB-231 breast = system: MDA-MB-231 breast
SW-620 colon = system: SW-620 colon
T-47D breast = system: T-47D breast
OVCAR-4 ovarian = system: OVCAR-4 ovarian
NCI-H23 lung = system: NCI-H23 lung
SK-MEL-2 melanoma = system: SK-MEL-2 melanoma
OVCAR-5 ovarian = system: OVCAR-5 ovarian
OVCAR-3 ovarian = system: OVCAR-3 ovarian
786-0 renal = system: 786-0 renal
OVCAR-8 ovarian = system: OVCAR-8 ovarian
SN12C renal = system: SN12C renal
M14 melanoma = system: M14 melanoma
HCT-15 colon = system: HCT-15 colon
HCT-116 colon = system: HCT-116 colon
KM12 colon = system: KM12 colon
SNB-19 CNS = system: SNB-19 CNS
K-562 leukemia = system: K-562 leukemia
U251 CNS = system: U251 CNS
CAKI-1 renal = system: CAKI-1 renal
MOLT-4 leukemia = system: MOLT-4 leukemia
HT29 colon = system: HT29 colon
HS 578T breast = system: HS 578T breast
UO-31 renal = system: UO-31 renal
SK-MEL-5 melanoma = system: SK-MEL-5 melanoma
HOP-92 NSCLC = system: HOP-92 NSCLC
NCI-H522 lung = system: NCI-H522 lung

CCOP(=O)(OCC)C(C)(C)OC(=O)NC(F)(F)F
TGI (MDA-N): > 100 µM
TGI (TK-10 renal): > 100 µM
TGI (HOP-62 NSCLC): > 100 µM
TGI (CCRF-CEM leukemia): > 100 µM
TGI (EKVX NSCLC): > 100 µM
TGI (SK-MEL-28 melanoma): > 100 µM
TGI (RPMI-8226 leukemia): > 100 µM
TGI (A549 NSCLC): > 100 µM
TGI (MDA-MB-435): > 100 µM
TGI (HCC-2998 colon): > 100 µM
TGI (NCI-H226 lung): 99.6 µM
TGI (UACC-62 melanoma): > 100 µM
TGI (ACHN renal): > 100 µM
TGI (DU-145 prostate): > 100 µM
TGI (HL-60(TB) leukemia): > 100 µM
TGI (UACC-257 melanoma): > 100 µM
TGI (LOX IMVI melanoma): > 100 µM
TGI (NCI-H460 lung): > 100 µM
TGI (RXF 393 renal): > 100 µM
TGI (BT-549 breast): > 100 µM
TGI (SNB-75 CNS): > 100 µM
TGI (MCF7 breast): > 100 µM
TGI (SR leukemia): > 100 µM
TGI (SK-OV-3 ovarian): > 100 µM
TGI (MALME-3M melanoma): > 100 µM
TGI (SF-539 CNS): > 100 µM
TGI (SF-295 CNS): > 100 µM
TGI (NCI/ADR-RES ovarian): > 100 µM
TGI (PC-3 prostate): > 100 µM
TGI (COLO 205 colon): > 100 µM
TGI (SF-268 CNS): > 100 µM
TGI (IGROV1 ovarian): > 100 µM
TGI (MDA-MB-231 breast): > 100 µM
TGI (SW-620 colon): > 100 µM
TGI (T-47D breast): > 100 µM
TGI (OVCAR-4 ovarian): > 100 µM
TGI (NCI-H23 lung): > 100 µM
TGI (SK-MEL-2 melanoma): > 100 µM
TGI (OVCAR-5 ovarian): > 100 µM
TGI (OVCAR-3 ovarian): > 100 µM
TGI (786-0 renal): > 100 µM
TGI (OVCAR-8 ovarian): > 100 µM
TGI (SN12C renal): > 100 µM
TGI (M14 melanoma): > 100 µM
TGI (HCT-15 colon): > 100 µM
TGI (HCT-116 colon): > 100 µM
TGI (KM12 colon): > 100 µM
TGI (SNB-19 CNS): > 100 µM
TGI (K-562 leukemia): > 100 µM
TGI (U251 CNS): > 100 µM
TGI (CAKI-1 renal): > 100 µM
TGI (MOLT-4 leukemia): > 100 µM
TGI (HT29 colon): > 100 µM
TGI (HS 578T breast): > 100 µM
TGI (UO-31 renal): > 100 µM
TGI (SK-MEL-5 melanoma): > 100 µM

CCOP(=O)(OCC)C(C)(CC)NC1=NC(C(F)(F)F)(C(F)(F)F)NC(=O)N1 (configuration not stated)
TGI (MDA-N): > 100 µM
TGI (TK-10 renal): > 100 µM
TGI (HOP-62 NSCLC): > 100 µM
TGI (CCRF-CEM leukemia): > 100 µM
TGI (EKVX NSCLC): > 100 µM
TGI (SK-MEL-28 melanoma): > 100 µM
TGI (HOP-92 NSCLC): > 100 µM
TGI (RPMI-8226 leukemia): > 100 µM
TGI (A549 NSCLC): > 100 µM
TGI (MDA-MB-435): > 100 µM
TGI (HCC-2998 colon): > 100 µM
TGI (NCI-H226 lung): > 100 µM
TGI (UACC-62 melanoma): > 100 µM
TGI (ACHN renal): > 100 µM
TGI (DU-145 prostate): > 100 µM
TGI (HL-60(TB) leukemia): > 100 µM
TGI (UACC-257 melanoma): > 100 µM
TGI (LOX IMVI melanoma): > 100 µM
TGI (NCI-H460 lung): > 100 µM
TGI (RXF 393 renal): > 100 µM
TGI (BT-549 breast): > 100 µM
TGI (SNB-75 CNS): > 100 µM
TGI (MCF7 breast): > 100 µM
TGI (SR leukemia): > 100 µM
TGI (SK-OV-3 ovarian): > 100 µM
TGI (MALME-3M melanoma): > 100 µM
TGI (SF-539 CNS): > 100 µM
TGI (SF-295 CNS): > 100 µM
TGI (NCI/ADR-RES ovarian): > 100 µM
TGI (PC-3 prostate): > 100 µM
TGI (COLO 205 colon): > 100 µM
TGI (SF-268 CNS): > 100 µM
TGI (IGROV1 ovarian): > 100 µM
TGI (MDA-MB-231 breast): > 100 µM
TGI (SW-620 colon): > 100 µM
TGI (T-47D breast): > 100 µM
TGI (OVCAR-4 ovarian): > 100 µM
TGI (NCI-H23 lung): > 100 µM
TGI (SK-MEL-2 melanoma): > 100 µM
TGI (OVCAR-5 ovarian): > 100 µM
TGI (OVCAR-3 ovarian): > 100 µM
TGI (786-0 renal): > 100 µM
TGI (OVCAR-8 ovarian): > 100 µM
TGI (SN12C renal): > 100 µM
TGI (M14 melanoma): > 100 µM
TGI (HCT-15 colon): > 100 µM
TGI (HCT-116 colon): > 100 µM
TGI (KM12 colon): > 100 µM
TGI (SNB-19 CNS): > 100 µM
TGI (K-562 leukemia): > 100 µM
TGI (U251 CNS): > 100 µM
TGI (CAKI-1 renal): > 100 µM
TGI (MOLT-4 leukemia): > 100 µM
TGI (HT29 colon): > 100 µM
TGI (HS 578T breast): > 100 µM
TGI (UO-31 renal): > 100 µM
TGI (SK-MEL-5 melanoma): > 100 µM

CCC(=O)NC(Nc1ccccc1F)(C(F)(F)F)C(F)(F)F
TGI (MDA-N): > 100 µM
TGI (TK-10 renal): > 100 µM
TGI (CCRF-CEM leukemia): > 100 µM
TGI (EKVX NSCLC): > 100 µM
TGI (SK-MEL-28 melanoma): > 100 µM
TGI (HOP-92 NSCLC): > 100 µM
TGI (RPMI-8226 leukemia): > 100 µM
TGI (A549 NSCLC): > 100 µM
TGI (MDA-MB-435): > 100 µM
TGI (HCC-2998 colon): > 100 µM
TGI (UACC-62 melanoma): > 100 µM
TGI (ACHN renal): > 100 µM
TGI (DU-145 prostate): > 100 µM
TGI (HL-60(TB) leukemia): > 100 µM
TGI (UACC-257 melanoma): > 100 µM
TGI (LOX IMVI melanoma): > 100 µM
TGI (NCI-H460 lung): > 100 µM
TGI (RXF 393 renal): > 100 µM
TGI (BT-549 breast): > 100 µM
TGI (SNB-75 CNS): > 100 µM
TGI (MCF7 breast): > 100 µM
TGI (SR leukemia): > 100 µM
TGI (SK-OV-3 ovarian): > 100 µM
TGI (SF-539 CNS): > 100 µM
TGI (SF-295 CNS): > 100 µM
TGI (NCI/ADR-RES ovarian): > 100 µM
TGI (PC-3 prostate): > 100 µM
TGI (COLO 205 colon): > 100 µM
TGI (SF-268 CNS): > 100 µM
TGI (IGROV1 ovarian): > 100 µM
TGI (MDA-MB-231 breast): > 100 µM
TGI (SW-620 colon): > 100 µM
TGI (T-47D breast): > 100 µM
TGI (OVCAR-4 ovarian): > 100 µM
TGI (NCI-H23 lung): > 100 µM
TGI (SK-MEL-2 melanoma): > 100 µM
TGI (OVCAR-5 ovarian): > 100 µM
TGI (OVCAR-3 ovarian): > 100 µM
TGI (OVCAR-8 ovarian): > 100 µM
TGI (SN12C renal): > 100 µM
TGI (M14 melanoma): > 100 µM
TGI (HCT-15 colon): > 100 µM
TGI (HCT-116 colon): > 100 µM
TGI (KM12 colon): > 100 µM
TGI (SNB-19 CNS): > 100 µM
TGI (K-562 leukemia): > 100 µM
TGI (U251 CNS): > 100 µM
TGI (NCI-H522 lung): > 100 µM
TGI (CAKI-1 renal): > 100 µM
TGI (MOLT-4 leukemia): > 100 µM
TGI (HT29 colon): > 100 µM
TGI (HS 578T breast): > 100 µM
TGI (UO-31 renal): > 100 µM
TGI (SK-MEL-5 melanoma): > 100 µM
